Assay results published in EPA's ToxRefDB 2.

Assays:
[1] = test system: rat; settings: Subchronic oral toxicity in rodents, Fischer, Feed, dose end: 13 week, group: systemic
[2] = test system: rat; settings: Carcinogenicity, fischer, Oral, Feed, dose end: 105 week, group: systemic
[3] = test system: rat; settings: Carcinogenicity; fischer; Oral; Feed; dose end: 2 year; group: systemic; systemic / in life observation / body weight / body weight
[4] = test system: rat; settings: Subchronic oral toxicity in rodents, fischer, Feed, dose end: 45 day, group: systemic
[5] = test system: mouse; settings: Carcinogenicity; b6c3f1; Oral; Feed; dose end: 2 year; group: systemic; systemic / in life observation / body weight / body weight
[6] = test system: mouse; settings: Subchronic oral toxicity in rodents, b6c3f1, Feed, dose end: 45 day, group: systemic, systemic / in life observation / mortality / mortality
[7] = test system: rat; settings: Subchronic oral toxicity in rodents, other, Gavage/Intubation, dose end: 90 day, group: systemic
[8] = test system: rat; settings: Subchronic oral toxicity in rodents, sprague dawley, Water, dose end: 13 week, group: systemic
[9] = test system: rat; settings: Subchronic oral toxicity in rodents, fischer, Water, dose end: 14 week, group: systemic
[10] = test system: rat; settings: Combined chronic toxicity/carcinogenicity, fischer, Oral, Water, dose end: 105 week, group: systemic
[11] = test system: rat; settings: Reproduction/developmental toxicity screening test, sprague dawley, Oral, Water, dose end: 1 generation, group: parental
[12] = test system: rat; settings: Reproduction/developmental toxicity screening test; sprague dawley; Oral; Water; dose end: 1 PND; group: parental; systemic / in life observation / water consumption / water consumption
[13] = test system: mouse; settings: Combined chronic toxicity/carcinogenicity, b6c3f1, Oral, Water, dose end: 105 week, group: systemic
[14] = test system: mouse; settings: Subchronic oral toxicity in rodents, b6c3f1, Water, dose end: 14 week, group: systemic
[15] = test system: rat; settings: Combined chronic toxicity/carcinogenicity, fischer, Oral, Feed, dose end: 2 year, group: systemic
[16] = test system: mouse; settings: Carcinogenicity, b6c3f1, Oral, Feed, dose end: 2 year, group: systemic
[17] = test system: mouse; settings: Multigenerational reproductive toxicity study, b6c3f1, Oral, Feed, dose end: 2 generation
[18] = test system: rat; settings: Subchronic oral toxicity in rodents, fischer, Feed, dose end: 13 week, group: systemic
[19] = test system: mouse; settings: Subchronic oral toxicity in rodents, b6c3f1, Feed, dose end: 13 week, group: systemic
[20] = test system: rat; settings: Subchronic oral toxicity in rodents, other, Gavage/Intubation, dose end: 90 day, group: systemic; remark: listed apart in the source
[21] = test system: mouse; settings: Carcinogenicity, cd1, Oral, Feed, dose end: 18 month, group: systemic
[22] = test system: dog; settings: Chronic toxicity; beagle; Oral; Capsule; dose end: 12 month; group: systemic; systemic / clinical chemistry / urea nitrogen / urea + systemic / in life observation / clinical signs / altered breathing rate + systemic…
[23] = test system: mouse; settings: Carcinogenicity, swiss albino, Oral, Feed, dose end: 18 month, group: systemic
[24] = test system: dog; settings: Subchronic oral toxicity in nonrodent, beagle, Capsule, dose end: 90 day, group: systemic
[25] = systemic / clinical chemistry / creatinine / creatinine + systemic / urinalysis / specific gravity/osmolality / specific gravity/osmolality…
[26] = systemic / in life observation / body weight / body weight gain + systemic / in life observation / body weight / body weight + systemic / …
[27] = systemic / pathology microscopic / kidney / hyperplasia + systemic / pathology microscopic / pancreas / hyperplasia
[28] = systemic / pathology microscopic / kidney / hyperplasia + systemic / pathology microscopic / pancreas / hyperplasia + systemic / pathology …
[29] = systemic / in life observation / body weight / body weight
[30] = systemic / in life observation / body weight / body weight + systemic / in life observation / mortality / mortality
[31] = systemic / organ weight / thymus / absolute + systemic / organ weight / thymus / relative to body weight + systemic / organ weight / thymus…
[32] = systemic / pathology gross / thyroid gland / enlarged + systemic / pathology microscopic / thyroid gland / cellular alteration
[33] = systemic / pathology gross / thyroid gland / enlarged + systemic / pathology microscopic / thyroid gland / cellular alteration + systemic / …
[34] = systemic / clinical chemistry / alanine aminotransferase (alt/sgpt) / alanine aminotransferase (alt/sgpt) + systemic / clinical chemistry / …
[35] = systemic / pathology gross / sperm measure / sperm motility
[36] = systemic / pathology microscopic / esophagus / hyperkeratosis + systemic / pathology microscopic / oral mucosa / [other] + systemic / …
[37] = systemic / in life observation / food consumption / food consumption + systemic / in life observation / water consumption / water …
[38] = systemic / in life observation / water consumption / water consumption
[39] = systemic / in life observation / water consumption / water consumption + systemic / pathology gross / sperm measure / sperm motility
[40] = systemic / pathology microscopic / kidney / hyperplasia + systemic / pathology microscopic / kidney / pigmentation
[41] = systemic / pathology microscopic / kidney / hyperplasia + systemic / pathology microscopic / kidney / pigmentation + systemic / pathology …
[42] = systemic / in life observation / body weight / body weight + systemic / pathology microscopic / lung / hyperplasia
[43] = systemic / pathology microscopic / lung / adenoma/carcinoma combined
[44] = group: offspring, systemic / in life observation / body weight / offspring (pup) weight
[45] = group: parental, systemic / in life observation / body weight / body weight + systemic / in life observation / food consumption / food consumption + systemic…
[46] = group: parental, systemic / in life observation / body weight / body weight + systemic / organ weight / kidney / relative to body weight + systemic / in life…
[47] = group: reproductive, reproductive / reproductive performance / reproductive performance other / NOS + reproductive / reproductive performance / estrous cycle / …
[48] = systemic / pathology microscopic / kidney / hyaline droplet
[49] = systemic / in life observation / body weight / body weight + systemic / in life observation / body weight / body weight gain
[50] = systemic / clinical chemistry / 5' nucleotidase / 5' nucleotidase + systemic / clinical chemistry / protein / protein + systemic / in life …
[51] = systemic / clinical chemistry / 5' nucleotidase / 5' nucleotidase + systemic / organ weight / liver / relative to body weight + systemic / …
[52] = systemic / pathology microscopic / liver / adenoma + systemic / pathology microscopic / liver / adenoma/carcinoma combined + systemic / …
[53] = systemic / pathology microscopic / liver / adenoma/carcinoma combined + systemic / hematology / erythrocyte (rbc) count differential / …
[54] = systemic / organ weight / kidney / absolute + systemic / organ weight / kidney / relative to body weight + systemic / organ weight / liver…
[55] = systemic / clinical chemistry / alkaline phosphatase (alp/alk) / alkaline phosphatase (alp/alk) + systemic / clinical chemistry / calcium / …

`OCC(CO)(CCBr)CCBr` [2,2-Bis(bromoethyl)-1,3-propanediol] was tested, and the LEL [1, 25] was 100 mg/kg/day, the NEL [1, 25] was less than 100 mg/kg/day and the LOAEL [1, 26] was 400 mg/kg/day. For the same molecule, the NOAEL [1, 26] was 200 mg/kg/day, the LOAEL [2, 27] was 100 mg/kg/day and the NOAEL [2, 27] was less than 100 mg/kg/day. For the same molecule, the LEL [2, 28] was 100 mg/kg/day and the NEL [2, 28] was less than 100 mg/kg/day.

`Cc1ccc(S(=O)(=O)NC(=O)NN2CCCCCC2)cc1` [Tolazamide] showed an LEL [3] of 250 mg/kg/day, an LOAEL [3] greater than 500 mg/kg/day and an NEL [3] of less than 250 mg/kg/day. For the same molecule, the NOAEL [3] was no less than 500 mg/kg/day, the LEL [4, 29] was 1000 mg/kg/day and the LOAEL [4, 29] was 1000 mg/kg/day. The NEL [4, 30] was 500 mg/kg/day, the NOAEL [4, 30] was 500 mg/kg/day and the LEL [5] was 750 mg/kg/day. The LOAEL [5] was 750 mg/kg/day, the NEL [5] was less than 750 mg/kg/day and the NOAEL [5] was less than 750 mg/kg/day. The LEL [6] was 3750 mg/kg/day, the LOAEL [6] was greater than 7500 mg/kg/day and the NEL [6] was 1800 mg/kg/day. For the same molecule, the NOAEL [6] was no less than 7500 mg/kg/day.

In the case of `N#CC(Br)Br` [Dibromoacetonitrile], the LEL ([7]; systemic / clinical chemistry / albumin / albumin) is reported as 23 mg/kg/day, the NEL ([7]; systemic / clinical chemistry / albumin / albumin + systemic / clinical chemistry / globulins / globulins + systemic / clinical chemistry / …) is reported as 6 mg/kg/day and the LOAEL [7, 31] is reported as greater than 45 mg/kg/day. For the same molecule, the NOAEL [7, 31] was no less than 45 mg/kg/day, the LEL [8, 32] was 0.005 mg/kg/day and the NEL [8, 32] was less than 0.005 mg/kg/day. For the same molecule, the LOAEL [8, 33] was greater than 5 mg/kg/day, the NOAEL [8, 33] was no less than 5 mg/kg/day and the LOAEL [9, 34] was greater than 11 mg/kg/day. The NEL [9, 34] was 2 mg/kg/day, the NOAEL [9, 34] was no less than 11 mg/kg/day and the LEL [9, 35] was 3 mg/kg/day. It also gave an LOAEL ([10]; systemic / pathology microscopic / esophagus / hyperkeratosis) of 4 mg/kg/day, an LEL ([10]; systemic / pathology microscopic / esophagus / hyperkeratosis + systemic / pathology microscopic / oral mucosa / [other] + systemic / in …) of 4 mg/kg/day and an NEL [10, 36] of 2 mg/kg/day. For the same molecule, the NOAEL [10, 36] was 2 mg/kg/day, the LOAEL [11, 37] was greater than 8.2 mg/kg/day and the NEL [11, 37] was 1.4 mg/kg/day. The NOAEL [11, 37] was no less than 8.2 mg/kg/day, the LEL [11, 38] was 3.3 mg/kg/day and the LEL [12] was 5.3 mg/kg/day. For the same molecule, the LOAEL [12] was greater than 10.8 mg/kg/day, the NEL [12] was 1.9 mg/kg/day and the NOAEL [12] was no less than 10.8 mg/kg/day. For the same molecule, the LOAEL [13, 29] was 11 mg/kg/day, the NOAEL ([13]; systemic / in life observation / body weight / body weight + systemic / pathology microscopic / stomach / squamous cell papilloma + systemic…) was 6 mg/kg/day and the LEL [13, 38] was 3 mg/kg/day. The NEL [13, 38] was less than 3 mg/kg/day, the LOAEL [14, 39] was greater than 18 mg/kg/day and the NOAEL [14, 39] was no less than 18 mg/kg/day. The LEL [14, 35] was 2 mg/kg/day and the NEL [14, 35] was less than 2 mg/kg/day.

With `O=C(O)c1ccc([N+](=O)[O-])cc1` [4-Nitrobenzoic acid] the LEL [15, 40] was 50 mg/kg/day, the NEL [15, 40] was less than 50 mg/kg/day and the LOAEL [15, 41] was 100 mg/kg/day. The NOAEL [15, 41] was 50 mg/kg/day, the LOAEL [16, 42] was greater than 675 mg/kg/day and the NOAEL [16, 42] was no less than 675 mg/kg/day. For the same molecule, the LEL [16, 43] was 170 mg/kg/day, the NEL [16, 43] was less than 170 mg/kg/day and the LEL [17, 44] was 500 mg/kg/day. It also gave an LOAEL [17, 44] greater than 2400 mg/kg/day, an NEL [17, 44] of less than 500 mg/kg/day and an NOAEL [17, 44] of no less than 2400 mg/kg/day. The LEL [17, 45] was 500 mg/kg/day, the NEL [17, 45] was less than 500 mg/kg/day and the LOAEL [17, 46] was greater than 2400 mg/kg/day. For the same molecule, the NOAEL [17, 46] was no less than 2400 mg/kg/day, the LOAEL [17, 47] was greater than 2400 mg/kg/day and the NEL [17, 47] was 500 mg/kg/day. It also gave an NOAEL [17, 47] of no less than 2400 mg/kg/day, an LEL ([17]; group: reproductive, reproductive / reproductive performance / reproductive performance other / NOS + reproductive / reproductive performance / gestational …) of 1100 mg/kg/day and an LOAEL ([18]; systemic / in life observation / body weight / body weight gain + systemic / organ weight / spleen / relative to body weight + systemic / …) of 310 mg/kg/day. It also gave an LEL [18, 48] of 40 mg/kg/day, an NEL [18, 48] of less than 40 mg/kg/day and an NOAEL ([18]; systemic / pathology microscopic / kidney / hyaline droplet + systemic / in life observation / body weight / body weight gain + systemic / …) of 160 mg/kg/day. It also gave an LEL [19, 49] of 170 mg/kg/day, an LOAEL [19, 49] of 670 mg/kg/day and an NEL [19, 49] of less than 170 mg/kg/day. It also gave an NOAEL ([19]; systemic / in life observation / body weight / body weight + systemic / in life observation / body weight / body weight gain + systemic / …) of 330 mg/kg/day.

Work on `N#CC(Cl)Cl` [Dichloroacetonitrile] yielded an LOAEL [20, 50] greater than 65 mg/kg/day, an NOAEL [20, 50] of no less than 65 mg/kg/day and an LEL [20, 51] of 8 mg/kg/day. It also gave an NEL [20, 51] of less than 8 mg/kg/day.

With `N#Cc1cc(Br)c(O)c(Br)c1` [Bromoxynil] the LOAEL [21, 52] was 12 mg/kg/day, the NOAEL [21, 52] was 3.1 mg/kg/day and the LEL [21, 53] was 3.1 mg/kg/day. For the same molecule, the NEL [21, 53] was less than 3.1 mg/kg/day, the LEL [22] was 1.5 mg/kg/day and the LOAEL [22] was 1.5 mg/kg/day. The NEL [22] was 0.3 mg/kg/day, the NOAEL [22] was 0.3 mg/kg/day and the LOAEL [23, 54] was greater than 13.3 mg/kg/day. The NOAEL [23, 54] was no less than 13.3 mg/kg/day, the NEL ([23]; systemic / pathology microscopic / liver / adenoma + systemic / pathology microscopic / liver / carcinoma + systemic / organ weight / liver…) was 1.33 mg/kg/day and the LEL ([23]; systemic / pathology microscopic / liver / carcinoma + systemic / pathology microscopic / liver / hyperplasia) was 4 mg/kg/day.

For `O=[N+]([O-])[O-].[Ag+]` [Silver nitrate], the LOAEL [24, 55] was 250 mg/kg/day, the NEL [24, 55] was 10 mg/kg/day and the NOAEL [24, 55] was 50 mg/kg/day. The LEL ([24]; systemic / in life observation / clinical signs / headflicking + systemic / in life observation / clinical signs / salivation + systemic / …) was 50 mg/kg/day.
